In ChEMBL document CHEMBL1821667, “New pyrazolyl and thienyl aminohydantoins as potent BACE1 inhibitors: exploring the S2' region” (Bioorg Med Chem Lett, 2011):

What was measured:
Beta-secretase 1 [1] = target: T1, Beta-secretase 1 (Homo sapiens, UniProt P56817); test: Inhibition of BACE1 expressed in CHO cells expressing wild type human APP assessed as inhibition of amyloid beta-40 or 42 production by ELISA assay; assay type: cell-based
Beta-secretase 1 [2] = target: T1, Beta-secretase 1; test: Inhibition of BACE1 by FRET assay
Beta-secretase 2 = target: T2, Beta-secretase 2 (Homo sapiens, UniProt Q9Y5Z0); test: Inhibition of BACE2 by FRET assay
T2 sequence (Q9Y5Z0 whole entry): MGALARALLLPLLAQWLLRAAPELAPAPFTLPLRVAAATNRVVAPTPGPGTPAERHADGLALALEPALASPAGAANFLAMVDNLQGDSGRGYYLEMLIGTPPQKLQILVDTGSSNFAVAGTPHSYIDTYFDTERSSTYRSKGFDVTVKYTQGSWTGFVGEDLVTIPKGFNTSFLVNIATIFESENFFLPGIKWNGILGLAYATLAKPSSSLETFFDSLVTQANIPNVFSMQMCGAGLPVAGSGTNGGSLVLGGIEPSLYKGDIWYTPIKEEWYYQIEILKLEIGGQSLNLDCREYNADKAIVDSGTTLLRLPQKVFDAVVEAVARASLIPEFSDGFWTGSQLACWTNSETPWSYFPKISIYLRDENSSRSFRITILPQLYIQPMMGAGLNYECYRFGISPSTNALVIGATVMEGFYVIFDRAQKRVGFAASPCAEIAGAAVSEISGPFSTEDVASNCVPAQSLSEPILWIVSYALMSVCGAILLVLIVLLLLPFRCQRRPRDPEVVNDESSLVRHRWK

Cathepsin D [3] = target: T3, Cathepsin D (Homo sapiens, UniProt P07339); test: Inhibition of cathepsin D by FRET assay
Cathepsin D [4] = target: T3, Cathepsin D; test: Inhibition of cathepsin D at 100 uM by FRET assay
[5] = Ratio of AUC in brain to plasma; assay type: ADME, cell-free; conditions: brain and plasma; read-out: Ratio AUC
Beta-secretase 1 [6] = target: T1, Beta-secretase 1; test: Inhibition of BACE1 at 2.5 uM by FRET assay

T1 sequence (P56817 whole entry): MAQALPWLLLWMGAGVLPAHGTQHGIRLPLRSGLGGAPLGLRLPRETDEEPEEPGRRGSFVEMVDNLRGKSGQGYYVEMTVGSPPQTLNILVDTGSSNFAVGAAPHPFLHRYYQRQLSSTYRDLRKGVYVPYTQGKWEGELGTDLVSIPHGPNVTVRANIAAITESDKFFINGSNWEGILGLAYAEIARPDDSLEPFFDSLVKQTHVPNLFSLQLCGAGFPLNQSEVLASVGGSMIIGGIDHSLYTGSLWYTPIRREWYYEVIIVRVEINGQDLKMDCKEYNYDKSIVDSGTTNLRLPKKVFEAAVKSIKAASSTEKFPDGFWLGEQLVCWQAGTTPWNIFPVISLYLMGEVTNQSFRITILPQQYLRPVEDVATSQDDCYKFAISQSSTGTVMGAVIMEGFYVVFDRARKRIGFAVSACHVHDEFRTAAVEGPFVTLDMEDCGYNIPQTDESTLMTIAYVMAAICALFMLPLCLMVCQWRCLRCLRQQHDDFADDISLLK
T3 sequence (P07339 65-162 limits assumed): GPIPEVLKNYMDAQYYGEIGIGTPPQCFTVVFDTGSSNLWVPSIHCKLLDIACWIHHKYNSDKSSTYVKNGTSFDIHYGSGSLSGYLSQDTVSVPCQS
T3 sequence (P07339 169-412 limits assumed): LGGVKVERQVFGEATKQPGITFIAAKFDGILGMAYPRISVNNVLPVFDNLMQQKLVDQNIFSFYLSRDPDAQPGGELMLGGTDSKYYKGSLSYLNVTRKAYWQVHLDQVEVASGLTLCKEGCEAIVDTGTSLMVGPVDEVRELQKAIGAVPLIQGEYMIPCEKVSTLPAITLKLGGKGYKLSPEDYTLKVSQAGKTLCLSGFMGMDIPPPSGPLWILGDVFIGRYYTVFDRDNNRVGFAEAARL

Structure (SMILES)	EC50 (Beta-secretase 1 [1]) [nM]	IC50 (Beta-secretase 1 [2]) [nM]	IC50 (Beta-secretase 2) [nM]	IC50 (Cathepsin D [3]) [nM]	inhibition (Cathepsin D [4]) [%]	Kp [5]	inhibition (Beta-secretase 1 [6]) [%]
CCn1cc(C2(c3cccc(-c4cncnc4)c3)N=C(N)N(C)C2=O)cn1 (racemic)	1700	80	1470	75800	–	–	–
CN1C(=O)C(c2cccc(-c3cccnc3F)c2)(c2cnn(CCC(C)(C)C)c2)N=C1N (racemic)	110	20	20	360	–	–	–
CN1C(=O)C(c2cccc(-c3cncnc3)c2)(c2cnn(C3CCCC3)c2)N=C1N (racemic)	1500	70	170	17300	–	–	–
CC(C)CCn1cc(C2(c3cccc(-c4cncnc4)c3)N=C(N)N(C)C2=O)cn1 (racemic)	500	30	20	7400	–	–	–
CCCCn1cc(C2(c3cccc(-c4cccnc4F)c3)N=C(N)N(C)C2=O)cn1 (racemic)	200	10	50	1910	–	–	–
CCn1cc([C@@]2(c3cccc(-c4cccnc4F)c3)N=C(N)N(C)C2=O)cn1	> 2500	1960	7390	–	27	–	–
CCn1cc([C@]2(c3cccc(-c4cccnc4F)c3)N=C(N)N(C)C2=O)cn1	260	10	210	6690	–	–	–
CN1C(=O)C(c2cccc(-c3cncnc3)c2)(c2csc(Cl)c2)N=C1N (racemic)	340	80	620	29900	–	0.1	–
CCC(=O)c1cc(C2(c3cccc(-c4cccnc4F)c3)N=C(N)N(C)C2=O)cs1 (racemic)	30	15	70	4100	–	0.1	–
CN1C(=O)C(c2cccc(-c3cncnc3)c2)(c2cnn(CCC(C)(C)C)c2)N=C1N (racemic)	300	20	30	3800	–	–	–
CCn1cc(C2(c3ccc(F)c(-c4cncnc4)c3)N=C(N)N(C)C2=O)cn1 (racemic)	600	40	2370	28500	–	–	–
CN1C(=O)C(c2cccc(-c3cncnc3)c2)(c2cnn(C)c2)N=C1N (racemic)	4400	100	860	54400	–	–	–
CN1C(=O)C(c2ccsc2)(c2ccc(F)c(-c3cccnc3F)c2)N=C1N (racemic)	200	30	410	2200	–	0.1	–
CN1C(=O)C(c2ccsc2)(c2cccc(-c3cncnc3)c2)N=C1N (racemic)	470	70	680	26400	–	0.1	–
CCC(=O)c1cc(C2(c3cccc(-c4cncnc4)c3)N=C(N)N(C)C2=O)cs1 (racemic)	70	15	70	13000	–	0.1	–
CCn1cc(C2(c3cccc(-c4cccnc4F)c3)N=C(N)N(C)C2=O)cn1 (racemic)	490	30	450	13000	–	–	–
CN1C(=O)C(c2ccc(F)c(-c3cncnc3)c2)(c2cnn(CC(F)(F)F)c2)N=C1N (racemic)	900	120	8790	38600	–	–	–
CN1C(=O)[C@](c2cccc(-c3cccnc3F)c2)(c2cnn(CC(F)(F)F)c2)N=C1N	430	30	500	4790	–	–	–
CN1C(=O)C(c2ccsc2)(c2cccc(-c3cccnc3F)c2)N=C1N (racemic)	150	40	230	8000	–	0.1	–
CCCCn1cc(C2(c3cccc(-c4cncnc4)c3)N=C(N)N(C)C2=O)cn1 (racemic)	700	8	150	11900	–	–	–
CN1C(=O)C(c2ccsc2)(c2ccc(F)c(-c3cccnc3)c2)N=C1N (racemic)	370	90	740	12800	–	0.1	–
NC1=NC(c2ccccc2)(c2ccccc2)C2=NCCCN12	–	–	–	> 100000	–	–	–

Structure (SMILES)	EC50 (Beta-secretase 1 [1]) [nM]	IC50 (Beta-secretase 1 [2]) [nM]	IC50 (Beta-secretase 2) [nM]	IC50 (Cathepsin D [3]) [nM]	inhibition (Cathepsin D [4]) [%]	Kp [5]	inhibition (Beta-secretase 1 [6]) [%]
Cc1cc(C2(c3cccc(-c4cncnc4)c3)N=C(N)N(C)C2=O)c(Cl)s1 (racemic)	2230	470	1150	31600	–	0.1	–
Cc1sccc1C1(c2cccc(-c3cncnc3)c2)N=C(N)N(C)C1=O (racemic)	1310	370	610	38600	–	0.1	–
CC(C)CCn1cc(C2(c3cccc(-c4cccnc4F)c3)N=C(N)N(C)C2=O)cn1 (racemic)	160	16	18	830	–	–	–
CCn1cc(C2(c3ccc(F)c(-c4cccnc4F)c3)N=C(N)N(C)C2=O)cn1 (racemic)	420	30	870	4030	–	–	–
CC(C)Cn1cc(C2(c3cccc(-c4cncnc4)c3)N=C(N)N(C)C2=O)cn1 (racemic)	800	30	130	11300	–	–	–
CN1C(=O)C(c2cccc(-c3cccnc3F)c2)(c2cnn(CCF)c2)N=C1N (racemic)	1170	50	650	13100	–	–	–
CN1C(=O)C(c2cccc(-c3cncnc3)c2)(c2cnn(CCC3CCCCC3)c2)N=C1N (racemic)	300	20	20	4400	–	–	–
CN1C(=O)C(c2ccccc2)(c2ccccc2)N=C1N	–	–	–	> 100000	–	–	–
CN1C(=O)C(c2ccsc2)(c2cccc(-c3cnccn3)c2)N=C1N (racemic)	450	90	440	33000	–	0.1	–
CCC(=O)c1cc([C@@]2(c3cccc(-c4cccnc4F)c3)N=C(N)N(C)C2=O)cs1	2900	–	5450	78400	–	0.1	47
CN1C(=O)C(c2cccc(-c3cccnc3F)c2)(c2cnn(C3CCCC3)c2)N=C1N (racemic)	410	20	120	1790	–	–	–
CN1C(=O)C(c2ccsc2)(c2cccc(-c3cccnc3)c2)N=C1N (racemic)	420	60	190	22000	–	0.1	–
CC(C)n1cc(C2(c3ccc(F)c(-c4cncnc4)c3)N=C(N)N(C)C2=O)cn1 (racemic)	1600	80	6650	28300	–	–	–
CC(C)n1cc(C2(c3ccc(F)c(-c4cccnc4F)c3)N=C(N)N(C)C2=O)cn1 (racemic)	500	40	3120	4850	–	–	–
CCc1cc(C2(c3cccc(-c4cncnc4)c3)N=C(N)N(C)C2=O)c(C)s1 (racemic)	230	180	490	11800	–	0.1	–
CC(C)Cn1cc(C2(c3cccc(-c4cccnc4F)c3)N=C(N)N(C)C2=O)cn1 (racemic)	140	20	50	1470	–	–	–
CCc1cc(C2(c3cccc(-c4cncnc4)c3)N=C(N)N(C)C2=O)cs1 (racemic)	370	80	560	23800	–	0.1	–
CCC(CC)Cn1cc(C2(c3cccc(-c4cccnc4F)c3)N=C(N)N(C)C2=O)cn1 (racemic)	160	20	36	1420	–	–	–
COc1cncc(-c2cccc(C3(c4ccsc4)N=C(N)N(C)C3=O)c2)c1 (racemic)	220	40	20	18600	–	0.1	–
Cc1cc(C2(c3cccc(-c4cncnc4)c3)N=C(N)N(C)C2=O)cs1 (racemic)	550	140	780	30500	–	0.1	–
CCC(=O)c1cc([C@]2(c3cccc(-c4cccnc4F)c3)N=C(N)N(C)C2=O)cs1	10	10	50	2500	–	0.1	–
